Laboratory results as given in article PMC8151276, “An Integrated Approach toward NanoBRET Tracers for Analysis of GPCR Ligand Engagement” (Molecules, 2021).

Tests used:
Assay type in all cases: binding
HRH2 = biological target: T1, HRH2 (Homo sapiens, UniProt P25021); assay: NanoBRET screen HiBiT-HRH2 in HEK293
T1 construct: purchased Promega (in-house HiBiT-GPCR construct library, NanoBRET)
Procedure: (§1) Each tracer candidate was screened across the entire library of HiBiT-GPCR constructs using NanoBRET as the detection modality. As depicted in Figure 4A, the specificity of interactions was evaluated through decrease in BRET due to competitive displacement of a bound tracer by excess parental compound. Each tracer was analyzed for binding to each HiBiT-GPCR fusion in the absence and in the presence of competing parental compound. Briefly, HEK293 cells were transfected with HiBiT-GPCR constructs diluted into promoterless DNA to reduce expression and maximize translocation to the cell surface. Each tracer candidate was then screened at concentrations of 1 μM and 0.1 μM across cells expressing these fusions. Cells were treated for 1.5 h with tracer either alone or in the presence of 20 μM competing parental compound (i.e., control). BRET was measured upon addition of purified LgBiT and subsequent complementation with HiBiT genetically fused to a GPCR. The specificity of interactions was assessed through a decrease in BRET signal due to competitive displacement of the bound tracer. To further gauge the robustness of these interactions, the fold response over the control (i.e., BRETtracer/BRETcontrol) was calculated. We chose a 1.5-fold response, which translates to ≥7-fold signal over noise as the minimal threshold required to score an interaction as positive. […]. Below we highlight the screening results obtained for our exemplary fluorescent tracers based on Clozapine, Amitriptyline and AZD1283.
(§2) HiBiT-GPCR DNA constructs were diluted in 10 mM Tris pH 8 to a final concentration of 0.01 μg/μL, arrayed in 96-well plates and stored at −20 °C. For transfection, HEK293 cells were suspended in Opti-MEM (without phenol red) supplemented with 2% fetal bovine serum (Seradigm) and 100 units/mL penicillin–streptomycin (Gibco) at a final concentration of 220,000 cells/mL and dispensed into white 96-well plates at 90 μL/well. Subsequent transfections and screens were carried using an Agilent Bravo Automated Liquid Handling Platform. First, the 96-well HiBiT DNA arrays were diluted 25-fold in Opti-MEM (without serum or phenol red) to a final concentration of 0.0004 μg/μL and 20 μL of the diluted DNAs were transferred into new 96-well plates. Next, promoterless carrier DNA (1 μg/μL) was diluted 25-fold (0.04 μg/μL) and then dispensed into the diluted arrays at 20 μL/well. Following brief mixing, Viafect transfection reagent (Promega) diluted 16-fold into Opti-MEM was dispensed into the plates at 40 μL/well. After mixing by pipetting, plates were incubated for 10 min on the pipetting station deck. The DNA-transfection reagent complexes were then added to plates containing cells. To facilitate the screen, 10 μL of DNA-transfection reagent complexes were added in duplicates to the top 4 and bottom 4 rows, resulting in two identical 48-well arrays per plate. Plates with transfected cells were incubated for 18–20 h at 37 °C/5% CO2. A screen of each tracer across the entire library using two different concentrations requires duplicate plates of transfected cells. Depending on the number of tracers being screened, transfections can be scaled up using the same ratios. The next day, for each tracer, four 20× screening solutions in tracer dilution buffer (Promega) were prepared: two duplicates at final concentration of 20 μM and two duplicates at a final concentration of 2 μM. A competing unmodified compound was added to one of each duplicate at a final concentration of 400 μM. The four resulting solutions were diluted 4-fold in Opti-MEM without serum or phenol red to generate 5× solutions (5 µM and 0.5 µM tracer +/− 100 μM competing compound). To screen the library, a BioTek MultiFlo FX liquid dispenser was used to dispense 22.5 µL of tracer solution to the top 4 rows and 22.5 µL tracer + competing compound solution to the 4 bottom rows. Plates were briefly mixed on an orbital shaker and incubated for 1.5 h at room temperature. […]

VIPR1 = biological target: T2, VIPR1 (Homo sapiens, UniProt P32241); assay: NanoBRET screen HiBiT-VIPR1 in HEK293
T2 construct: purchased Promega (in-house HiBiT-GPCR construct library, NanoBRET)
T2 sequence (P32241 31-457): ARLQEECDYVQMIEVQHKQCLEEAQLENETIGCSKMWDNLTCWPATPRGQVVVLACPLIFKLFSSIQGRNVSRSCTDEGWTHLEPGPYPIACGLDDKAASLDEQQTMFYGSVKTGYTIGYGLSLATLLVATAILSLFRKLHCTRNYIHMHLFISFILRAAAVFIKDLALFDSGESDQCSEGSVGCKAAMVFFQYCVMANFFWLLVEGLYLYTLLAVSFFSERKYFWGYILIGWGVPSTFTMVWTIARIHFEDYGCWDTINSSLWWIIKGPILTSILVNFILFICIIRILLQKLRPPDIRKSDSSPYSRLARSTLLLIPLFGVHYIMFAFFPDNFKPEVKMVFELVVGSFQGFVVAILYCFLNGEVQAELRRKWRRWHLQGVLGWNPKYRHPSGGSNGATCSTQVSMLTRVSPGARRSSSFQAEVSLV
Procedure: as §1, §2

ADRA2C = biological target: T3, ADRA2C (Homo sapiens, UniProt P18825); assay: NanoBRET screen HiBiT-ADRA2C in HEK293
T3 construct: purchased Promega (in-house HiBiT-GPCR construct library, NanoBRET)
T3 sequence (P18825 1-462): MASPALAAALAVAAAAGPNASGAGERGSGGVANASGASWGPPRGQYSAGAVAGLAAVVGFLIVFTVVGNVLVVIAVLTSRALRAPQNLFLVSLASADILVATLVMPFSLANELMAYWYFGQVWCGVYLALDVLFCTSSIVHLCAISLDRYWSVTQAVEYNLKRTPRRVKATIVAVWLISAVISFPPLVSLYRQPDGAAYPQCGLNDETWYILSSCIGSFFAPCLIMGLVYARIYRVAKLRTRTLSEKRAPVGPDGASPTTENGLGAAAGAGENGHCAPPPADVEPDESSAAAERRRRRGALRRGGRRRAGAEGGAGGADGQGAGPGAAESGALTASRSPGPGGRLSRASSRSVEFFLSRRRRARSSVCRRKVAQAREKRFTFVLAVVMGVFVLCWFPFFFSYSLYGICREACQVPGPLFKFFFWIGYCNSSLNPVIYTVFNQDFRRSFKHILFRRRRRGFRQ
Procedure: as §1, §2

OXER1 = biological target: T4, OXER1 (Homo sapiens, UniProt Q8TDS5); assay: NanoBRET screen HiBiT-OXER1 in HEK293
T4 construct: purchased Promega (in-house HiBiT-GPCR construct library, NanoBRET)
Procedure: as §1, §2

LTB4R = biological target: T5, LTB4R (Homo sapiens, UniProt Q15722); assay: NanoBRET screen HiBiT-LTB4R in HEK293
T5 construct: purchased Promega (in-house HiBiT-GPCR construct library, NanoBRET)
Procedure: as §1, §2

MC3R = biological target: T6, MC3R (Homo sapiens, UniProt P41968); assay: NanoBRET screen HiBiT-MC3R in HEK293
T6 construct: purchased Promega (in-house HiBiT-GPCR construct library, NanoBRET)
Procedure: as §1, §2

[1] = tracer at 0.1μM, listed as amitriptyline-b-2-NB590
[2] = tracer at 1μM, listed as amitriptyline-b-2-NB590

T5 sequence (Q15722 whole entry): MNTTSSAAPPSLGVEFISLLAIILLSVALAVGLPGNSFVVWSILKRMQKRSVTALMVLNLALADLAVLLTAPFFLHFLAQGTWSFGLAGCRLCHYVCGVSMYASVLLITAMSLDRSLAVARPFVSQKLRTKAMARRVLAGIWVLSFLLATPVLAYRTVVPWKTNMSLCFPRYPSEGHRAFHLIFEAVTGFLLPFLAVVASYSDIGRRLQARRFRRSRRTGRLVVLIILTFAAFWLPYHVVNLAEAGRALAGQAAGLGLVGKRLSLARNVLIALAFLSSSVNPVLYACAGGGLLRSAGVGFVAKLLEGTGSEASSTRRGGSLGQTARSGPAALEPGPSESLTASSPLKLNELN
T6 sequence (P41968 whole entry): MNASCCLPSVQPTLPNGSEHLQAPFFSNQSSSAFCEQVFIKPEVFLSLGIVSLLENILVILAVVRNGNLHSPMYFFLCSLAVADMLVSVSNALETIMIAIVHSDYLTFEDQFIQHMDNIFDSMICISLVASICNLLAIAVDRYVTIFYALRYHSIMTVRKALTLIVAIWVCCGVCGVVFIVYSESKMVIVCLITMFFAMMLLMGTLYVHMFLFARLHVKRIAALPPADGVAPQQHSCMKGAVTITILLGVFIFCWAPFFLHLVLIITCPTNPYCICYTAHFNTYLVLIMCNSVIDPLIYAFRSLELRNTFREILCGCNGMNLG
T4 sequence (Q8TDS5 whole entry): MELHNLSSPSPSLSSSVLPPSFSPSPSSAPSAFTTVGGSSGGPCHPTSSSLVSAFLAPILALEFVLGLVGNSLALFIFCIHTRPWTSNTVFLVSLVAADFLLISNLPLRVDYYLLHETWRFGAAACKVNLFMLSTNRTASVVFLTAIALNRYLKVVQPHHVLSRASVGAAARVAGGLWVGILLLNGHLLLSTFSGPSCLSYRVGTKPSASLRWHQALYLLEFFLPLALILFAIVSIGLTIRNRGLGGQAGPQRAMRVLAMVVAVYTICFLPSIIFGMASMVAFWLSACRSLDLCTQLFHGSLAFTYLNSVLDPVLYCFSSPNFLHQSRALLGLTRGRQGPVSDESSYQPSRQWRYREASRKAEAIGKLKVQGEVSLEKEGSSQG
T1 sequence (P25021 whole entry): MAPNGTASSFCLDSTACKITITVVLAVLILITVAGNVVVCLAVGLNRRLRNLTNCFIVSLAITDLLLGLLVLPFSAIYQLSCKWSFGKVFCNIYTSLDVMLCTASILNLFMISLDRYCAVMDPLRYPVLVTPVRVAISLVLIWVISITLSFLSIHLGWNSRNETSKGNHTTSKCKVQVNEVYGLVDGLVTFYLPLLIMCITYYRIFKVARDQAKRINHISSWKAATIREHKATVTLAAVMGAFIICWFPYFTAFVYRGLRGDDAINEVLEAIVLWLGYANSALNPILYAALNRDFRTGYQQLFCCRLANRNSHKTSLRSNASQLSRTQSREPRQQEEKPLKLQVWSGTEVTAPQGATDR

| SMILES | NanoBRET Fold Response (HRH2; HRH2, tracer 0.1μM) | NanoBRET Fold Response (HRH2; HRH2, tracer 1μM) | NanoBRET Fold Response (VIPR1; VIPR1, tracer 0.1μM) | NanoBRET Fold Response (VIPR1; VIPR1, tracer 1μM) | NanoBRET Fold Response (ADRA2C; ADRA2C, tracer 0.1μM) | NanoBRET Fold Response (ADRA2C; ADRA2C, tracer 1μM) | NanoBRET Fold Response (OXER1; OXER1, tracer 0.1μM) | NanoBRET Fold Response (OXER1; OXER1, tracer 1μM) | NanoBRET Fold Response (LTB4R; LTB4R, tracer 0.1μM) | NanoBRET Fold Response (LTB4R; LTB4R, tracer 1μM) | NanoBRET Fold Response (MC3R; MC3R, tracer 0.1μM) | NanoBRET Fold Response (MC3R; MC3R, tracer 1μM) | NanoBRET Fold Response (VIPR1; tracer at 1μM) | further results |
| --- | --- | --- | --- | --- | --- | --- | --- | --- | --- | --- | --- | --- | --- | --- |
| Cc1nc2n(c(=O)c1CCN1CCC(c3noc4cc(F)ccc34)CC1)CCCC2OC(=O)NCCOCCOCCOCCOCCNC(=O)CCc1ccc2n1[B-](F)(F)[N+]1=C(c3ccc[nH]3)C=CC1=C2 (stereo not drawn) [Risperidone-2-NB590] | 1.05 | 1.13 | 0.98 | 1.10 | 1.59 | 1.37 | 1.03 | 1.18 | 1.03 | 1.00 | 0.99 | 0.95 |  |  |
| CCOC(=O)c1cc(C#N)c(N2CCC(C(=O)NS(=O)(=O)Cc3ccccc3/C=C/C(=O)NCCNC(=O)CCc3ccc4n3[B-](F)(F)[N+]3=C(c5ccc[nH]5)C=CC3=C4)CC2)nc1C [AZD1283-1-NB590] |  |  |  |  |  |  |  |  |  |  |  |  |  | NanoBRET Fold Response (HRH2; HRH2, 0.1μM): 0.90; NanoBRET Fold Response (HRH2; HRH2, 1μM): 1.03; NanoBRET Fold Response (VIPR1; VIPR1, 0.1μM): 0.99; NanoBRET Fold Response (VIPR1; VIPR1, 1μM): 1.02; NanoBRET Fold Response (ADRA2C; ADRA2C, 0.1μM): 1.05; NanoBRET Fold Response (ADRA2C; ADRA2C, 1μM): 1.04; NanoBRET Fold Response (OXER1; OXER1, 0.1μM): 0.50; NanoBRET Fold Response (OXER1; OXER1, 1μM): 1.03; NanoBRET Fold Response (LTB4R; LTB4R, 0.1μM): 1.16; NanoBRET Fold Response (LTB4R; LTB4R, 1μM): 1.16; NanoBRET Fold Response (MC3R; MC3R, 0.1μM): 1.00; NanoBRET Fold Response (MC3R; MC3R, 1μM): 0.98 |
| Cc1cc2c(s1)Nc1ccccc1N=C2N1CCN(CCCNC(=O)CCOCCOCCOCCOCCNC(=O)CCc2ccc3n2[B-](F)(F)[N+]2=C(c4ccc[nH]4)C=CC2=C3)CC1 [Olanzapine-a-2-NB590] | 0.89 | 0.85 | 1.06 | 1.04 | 0.97 | 1.50 | 0.96 | 1.04 | 1.02 | 1.03 | 1.00 | 1.12 |  |  |
| COc1ccccc1N1CCN(CCCCN2C(=O)c3ccc(CNC(=O)CCOCCNC(=O)c4ccc(CNC(=O)CCc5ccc6n5[B-](F)(F)[N+]5=C(c7ccc[nH]7)C=CC5=C6)cc4)cc3C2=O)CC1 [NAN-190-3-NB590] | 1.07 | 1.08 | 0.71 | 1.05 | 1.56 | 1.33 | 1.34 | 0.63 | 1.02 | 1.09 | 1.10 | 0.95 |  |  |
| CC(C)N(CC[C@H](c1ccccc1)c1cc(CCNC(=O)CCOCCOCCOCCOCCNC(=O)CCc2ccc3n2[B-](F)(F)[N+]2=C(c4ccc[nH]4)C=CC2=C3)ccc1O)C(C)C [Tolterodine-2-NB590] | 1.06 | 0.82 | 0.99 | 0.78 | 0.85 | 1.04 | 0.73 | 1.09 | 0.92 | 0.96 | 0.82 | 1.04 |  |  |
| CN(C)CCC=C1c2ccccc2CCc2ccc(C(=O)NCCNC(=O)CCOCCOCCOCCOCCNC(=O)CCc3ccc4n3[B-](F)(F)[N+]3=C(c5ccc[nH]5)C=CC3=C4)cc21 [Amitriptyline-b-2-NB590] |  |  |  |  |  |  |  |  |  |  |  |  | 0.96 | NanoBRET Fold Response (HRH2; [1]): 0.85; NanoBRET Fold Response (HRH2; [2]): 1.05; NanoBRET Fold Response (VIPR1; [1]): 0.98; NanoBRET Fold Response (ADRA2C; [1]): 1.08; NanoBRET Fold Response (ADRA2C; [2]): 1.08; NanoBRET Fold Response (OXER1; tracer at 0.1μM): 1.08; NanoBRET Fold Response (OXER1; tracer at 1μM): 0.97; NanoBRET Fold Response (LTB4R; [2]): 1.02; NanoBRET Fold Response (MC3R; tracer at 0.1μM): 0.98; NanoBRET Fold Response (MC3R; tracer at 1μM): 0.98 |
| O=C(CCOCCOCCOCCOCCNC(=O)CCc1ccc2n1[B-](F)(F)[N+]1=C(c3ccc[nH]3)C=CC1=C2)NCCCN1CCN(C2=Nc3ccccc3Oc3ccc(Cl)cc32)CC1 [Loxapine-a-2-NB590] | 0.79 | 1.06 | 0.94 | 1.05 | 1.13 | 1.54 | 0.93 | 1.09 | 1.05 | 0.96 | 1.00 | 1.00 |  |  |
| CN(C)CCC=C1c2ccccc2CCc2ccc(C(=O)NCCNC(=O)CCOCCOCCOCCOCCNC(=O)CCc3ccc4n3[B-](F)(F)[N+]3=C(c5ccc[nH]5)C=CC3=C4)cc21 [Amitriptyline-a-2-NB590] |  |  |  |  |  |  |  |  |  |  |  |  | 1.07 | NanoBRET Fold Response (HRH2; tracer at 0.1μM): 1.00; NanoBRET Fold Response (HRH2; tracer at 1μM): 0.99; NanoBRET Fold Response (VIPR1; tracer at 0.1μM): 0.95; NanoBRET Fold Response (ADRA2C; tracer at 1μM): 1.37; NanoBRET Fold Response (LTB4R; tracer at 0.1μM): 1.02; NanoBRET Fold Response (LTB4R; tracer at 1μM): 1.00 |
| N#CN/C(=N\CCNC(=O)c1ccc(N)cc1)NCCCOc1cccc(CN2CCCCC2)c1 [Aminopotentidine (unmodified)] |  |  |  |  |  |  |  |  |  |  |  |  |  | NanoBRET Fold Response (ADRA2C; ADRA2C, other tracers/Aminopotentidine (unmodified), 0.1μM): 1.06; NanoBRET Fold Response (ADRA2C; ADRA2C, other tracers/Aminopotentidine (unmodified), 1μM): 1.11 |
| CN(CCC=C1c2ccccc2CCc2ccccc21)C(=O)CCOCCOCCOCCOCCNC(=O)CCc1ccc2n1[B-](F)(F)[N+]1=C(c3ccc[nH]3)C=CC1=C2 [Amitriptyline-e-2-NB590] |  |  |  |  |  |  |  |  |  |  |  |  | 1.06 | NanoBRET Fold Response (HRH2; tracer at 1μM): 0.95; NanoBRET Fold Response (ADRA2C; tracer at 1μM): 1.00; NanoBRET Fold Response (LTB4R; tracer at 1μM): 1.03 |
